One experiment relates to guinea pig trachea. Put plainly: Inhibition of the contraction of guinea pig trachea. The note with it: guinea pig tracheal rings. Format: cell-based. As for the experimental part: The contraction of the guinea pig trachea was measured according to Br. J. Pharmacol. 98, 483, l989, by the following procedure.
Male guinea pigs weighing 350 - 500 g were stunned and bled. The trachea was rapidly removed and placed in an oxygenated (95% O₂ , 5% CO₂) Krebs solution. After removal of the adherent fat and connective tissues, the trachea was cut into 2 mm wide rings. The two rings were tied together, end to end, placed in a 30 ml organ bath and connected to an isometric force-transducer under an initial tension of 1.0 g.

In another experiment the target is T1, ETA receptor (Sus scrofa, UniProt Q29010).
T1 sequence (Q29010 21-427): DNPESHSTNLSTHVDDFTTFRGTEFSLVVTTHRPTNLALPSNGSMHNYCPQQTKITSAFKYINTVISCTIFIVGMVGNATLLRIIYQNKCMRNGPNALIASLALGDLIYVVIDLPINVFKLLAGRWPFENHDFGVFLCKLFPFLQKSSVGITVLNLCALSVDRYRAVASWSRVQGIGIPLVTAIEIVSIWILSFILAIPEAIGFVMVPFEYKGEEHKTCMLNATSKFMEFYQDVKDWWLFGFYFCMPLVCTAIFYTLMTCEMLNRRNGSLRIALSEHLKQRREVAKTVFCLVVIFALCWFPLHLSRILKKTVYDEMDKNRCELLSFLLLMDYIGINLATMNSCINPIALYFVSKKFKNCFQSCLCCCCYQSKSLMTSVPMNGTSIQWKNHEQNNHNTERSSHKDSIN

Where a SMILES comes first, the peptide text is derived from it.

Data on two compounds can be found in patent EP0548441A1, “Endothelin antagonists” (Japat Ltd, priority 1991, dated 1993).

Description for ETA receptor: Porcine lung was homogenized with a Kinematica Polytron homogenizer (Lucern, Switzerland) three times at top speed for each 30 sec in 9 volumes of ice-cold 0.25 M sucrose solution containing 20 mM Tris-HCl (pH 7.4), 0.2 mM phenylmethylsulfonyl fluoride, 1 µM leupeptin, 1 µM pepstatin, 0.1 mM EDTA, and 0.5 mM EGTA. After centrifugation of the homogenate at 1,000 x g for 10 min at 4°C, the supernatant was centrifuged again at 20,000 x g for 20 min. The resulting pellet was washed three times as described above and used as a membrane source. The membrane was stocked in aliquots at -80°C until use.
ET-3 in the absence and presence of various amounts of nonlabeled ligands in a total volume of 1 ml of 20 mM HEPES (pH 7), 145 mM NaCl, 5 mM KCl, 3 mM MgCl₂ , 1 mM EGTA, 1 mg/ml bovine serum albumin, and 0.2 mg/ml bacitracin. […] The radioactivity in membrane pellet was measured in a gamma counter. Nonspecific binding was defined as membrane-associated radioactivity in the presence of saturating concentrations of ET(l00 nM). […] Total binding was always less than l5% of the total radioactivity added.
The specific binding site for ETs in the plasma membrane of porcine lung was detected. The binding to the ETA receptor was determined with [¹²⁵I]ET-1 in the presence of 1 nM unlabeled ET-3 and the binding to the ETB receptor was determined with [¹²⁵I]ET-3 alone. […]

`CC[C@H](C)[C@H](NC(=O)[C@H](CC(=O)O)NC(=O)[C@H](CC(C)C)NC(=O)[C@H](Cc1c[nH]cn1)NC(=O)[C@H](C)NC(=O)[C@H](Cc1ccccc1)NC(=O)[C@H](Cc1ccc(O)cc1)NC(=O)[C@@H](NC(=O)[C@H](C)NC(=O)[C@H](CCC(=O)O)NC(=O)[C@H](CCCCN)NC(=O)[C@H](CC(=O)O)NC(C)=O)C(C)C)C(=O)N[C@H](C(=O)N[C@@H](Cc1c[nH]c2ccccc12)C(=O)O)[C@@H](C)CC` [Compound (II)] (Ac-DKEAVYFAHLDIIW-OH): in the experiment on guinea pig trachea (100 nM, added 5 min prior to the addition of ET-3), the “inhibition of ET-3-induced contraction of the trachea” value is “significantly inhibited”. In addition, the Ki – broadly, a dissociation constant, usually derived from enzyme kinetics or from competition with a known ligand – on ETA receptor is 450 nM.

As to `CC[C@H](C)[C@H](NC(=O)[C@H](CC(=O)O)NC(=O)[C@H](CC(C)C)NC(=O)[C@H](Cc1c[nH]cn1)NC(=O)[C@@H]1CSSC[C@H](N)C(=O)N[C@@H]([C@@H](C)O)C(=O)N[C@H]2CSSC[C@H](NC(=O)[C@H](CCC(=O)O)NC(=O)[C@H](CCCCN)NC(=O)[C@H](CC(=O)O)NC(=O)[C@H](CCCCN)NC(=O)[C@H](Cc3ccc(O)cc3)NC(=O)[C@H]([C@@H](C)O)NC(=O)[C@H](Cc3ccccc3)NC2=O)C(=O)N[C@@H](C(C)C)C(=O)N[C@@H](Cc2ccc(O)cc2)C(=O)N[C@@H](Cc2ccc(O)cc2)C(=O)N1)C(=O)N[C@H](C(=O)N[C@@H](Cc1c[nH]c2ccccc12)C(=O)O)[C@@H](C)CC` [ET-3, endothelin-3, reference compound], the “contraction of the trachea” value with guinea pig trachea (organ bath, high KCl (60 mM) as reference standard) is given as “caused a contraction of the trachea in a concentration dependent manner”.
